In patent US9085598B2, “Compounds targeting the cell invasion protein complex, their pharmaceutical compositions and methods of use thereof” (THE ROYAL INSTITUTE FOR THE ADVANCEMENT OF LEARNING/MCGILL …, priority 2011, dated 2015):
Like-named read-outs stand apart in the source and are kept apart here.

How the values were obtained:
DU145 cells = assay: Inhibition of cell proliferation, MTT metabolic assay; assay type: cell-based
Experimental: Exponentially growing DU145 or MDA-231 cells (1×10^3 cells) were seeded in 96-well plates. The final concentration of DMSO was less than 0.05%. After 96 hours, the cell survival was evaluated using 3-(4,5-dimethylthiazo-2-yl)-2,5-diphenyltetrazolium bromide (MTT) metabolic assay. The inhibitory activity (IC50) of the compounds on MDA-231 and DU145 cell proliferation was determined. The results are presented in Table 1 for a representative number of compounds.

MDA-231 cells = assay: as above; assay type: cell-based; settings: 96 hours continuous treatment, read-out: MDA231- IC50
Experimental: Exponentially growing DU145 or MDA-231 cells (1×10^3 cells) were seeded in 96-well plates. The final concentration of DMSO was less than 0.05%. After 96 hours, the cell survival was evaluated using 3-(4,5-dimethylthiazo-2-yl)-2,5-diphenyltetrazolium bromide (MTT) metabolic assay.

FAK = molecular target: T1, FAK (Homo sapiens, UniProt Q05397); assay: In vitro kinase activity (Kinase-Glo luminescence); assay type: biochemical; settings: for inhibition at 1 µM: read-out: FAK inhibition (% at 1 μM); for FAK inhibition (% at 1 μM): Table 1
T1 construct: Human recombinant full-length kinases were incubated in kinase buffer
Experimental: Human recombinant full-length kinases were incubated in kinase buffer containing ATP and substrate (Poly Glu:Tyr) for 4 hours at room temperature with or without the presence of the compounds listed in Table 1 at various concentrations. Remaining ATP in solution was then quantified using the Kinase-Glo-Iuminescence™ kit (Promega).

[1] = Homo sapiens, DU-145, 96 hours continuous treatment
[2] = Homo sapiens, MDA-MB-231, MDA-231 cell proliferation

T1 sequence (Q05397 whole entry): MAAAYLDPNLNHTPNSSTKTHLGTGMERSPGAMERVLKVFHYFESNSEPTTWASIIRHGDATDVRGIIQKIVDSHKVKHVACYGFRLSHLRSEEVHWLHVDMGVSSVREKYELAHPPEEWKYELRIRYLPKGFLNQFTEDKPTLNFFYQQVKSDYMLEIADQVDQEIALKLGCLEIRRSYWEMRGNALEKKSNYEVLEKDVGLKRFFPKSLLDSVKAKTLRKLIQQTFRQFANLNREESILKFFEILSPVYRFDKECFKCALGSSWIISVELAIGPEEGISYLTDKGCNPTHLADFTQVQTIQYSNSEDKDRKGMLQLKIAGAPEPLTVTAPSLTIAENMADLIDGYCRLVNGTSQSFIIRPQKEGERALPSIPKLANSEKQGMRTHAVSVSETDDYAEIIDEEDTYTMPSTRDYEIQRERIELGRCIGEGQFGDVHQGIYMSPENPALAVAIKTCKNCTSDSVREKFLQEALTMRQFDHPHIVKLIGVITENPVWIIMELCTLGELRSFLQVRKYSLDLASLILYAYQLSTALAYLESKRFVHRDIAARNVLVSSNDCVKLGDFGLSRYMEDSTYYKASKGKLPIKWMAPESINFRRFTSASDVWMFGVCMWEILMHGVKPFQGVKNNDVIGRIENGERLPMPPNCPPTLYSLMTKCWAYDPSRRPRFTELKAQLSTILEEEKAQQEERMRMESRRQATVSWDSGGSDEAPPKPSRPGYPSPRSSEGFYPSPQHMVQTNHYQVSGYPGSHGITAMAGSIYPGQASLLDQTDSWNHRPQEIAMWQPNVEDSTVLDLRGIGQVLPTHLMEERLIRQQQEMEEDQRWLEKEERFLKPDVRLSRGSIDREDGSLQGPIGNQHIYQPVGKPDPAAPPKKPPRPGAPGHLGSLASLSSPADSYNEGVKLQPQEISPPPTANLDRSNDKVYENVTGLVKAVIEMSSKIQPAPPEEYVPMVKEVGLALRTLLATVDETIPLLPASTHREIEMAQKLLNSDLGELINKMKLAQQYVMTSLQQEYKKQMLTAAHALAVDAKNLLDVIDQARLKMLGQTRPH

Compound	IC50 (DU145 cells; [1]) [µM]	IC50 (MDA-231 cells; [2]) [µM]	inhibition at 1 µM (FAK) [%]	IC50 (DU145 cells; 96 hours continuous treatment) [µM]	IC50 (MDA-231 cells; MDA-231 cell proliferation) [µM]	FAK inhibition (% at 1 μM) (FAK) [%]
CC(=O)OCC1O[C@@H](n2[se]c3ccccc3c2=O)C(OC(C)=O)C(OC(C)=O)[C@@H]1OC(C)=O (some centres unmarked) [Compound 19]	11.9	5.2	–	–	–	–
O=c1c2ccccc2[se]n1-c1ccc(O[C@@H]2OC(CO)[C@@H](O)C(O)C2O)cc1 (some centres unmarked) [Compound 26]	–	4.4	15	–	–	–
CC(=O)OCC1O[C@@H](OC(=O)Cn2[se]c3ccccc3c2=O)C(OC(C)=O)C(OC(C)=O)[C@@H]1OC(C)=O (some centres unmarked) [Compound 17]	30.4	35	51.9	–	–	–
O=c1c2ccccc2[se]n1CCO[C@@H]1OC(CO)[C@@H](O)C(O)C1O (some centres unmarked) [Compound 18]	125	> 100	–	–	–	–
CC(=O)OCC1O[C@@H](OC(=O)c2ccc(-n3[se]c4ccccc4c3=O)cc2)C(OC(C)=O)C(OC(C)=O)[C@@H]1OC(C)=O (some centres unmarked) [Compound 28]	–	4.3	85	–	–	–
CC(=O)OC[C@H]1O[C@@H](n2[se]c3ccccc3c2=O)[C@H](OC(C)=O)[C@@H](OC(C)=O)[C@H]1OC(C)=O [Compound 2, 2-(1-deoxy-2,3,4,6-tetra-O-acetyl-β-D-galactopyranosyl)-1,2-benzisoselenazol-3(2H)-one]	–	–	–	224	> 100	–
O=C(Cn1[se]c2ccccc2c1=O)N[C@@H]1OC(CO)[C@@H](O)C(O)C1O (some centres unmarked) [Compound 20]	395	550	15	–	–	–
O=C(N[C@@H]1OC(CO)[C@@H](O)C(O)C1O)c1ccc(-n2[se]c3ccccc3c2=O)cc1 (some centres unmarked) [Compound 22]	–	2.7	60	–	–	–
CC(=O)OCC1O[C@@H](OC(=O)c2ccc(-n3[se]c4ccccc4c3=O)cc2)C(OC(C)=O)C(OC(C)=O)[C@H]1OC(C)=O (some centres unmarked) [Compound 29]	–	3.7	11	–	–	–
CC(=O)OCC1O[C@@H](NC(=O)c2ccc(-n3[se]c4ccccc4c3=O)cc2)C(OC(C)=O)C(OC(C)=O)[C@@H]1OC(C)=O (some centres unmarked) [Compound 21]	–	5.5	54	–	–	–
(2,3,4,6-tetra-O-acetyl-β-D-glucopyranosyl)-4-(3-oxo-1,2-benzisoselenazol-2(3H)-yl)benzoate [Compound 10]	–	–	–	30.6	57.5	–
O=c1c2ccccc2[se]n1[C@@H]1O[C@H](CO)[C@@H](O[C@@H]2O[C@H](CO)[C@H](O)[C@H](O)[C@H]2O)[C@H](O)[C@H]1O [Compound 5, 2-(1-deoxy-β-D-lactosyl)-1,2-benzisoselenazol-3(2H)-one]	–	–	–	24.6	18.1	–
O=c1c2ccccc2[se]n1[C@@H]1O[C@H](CO)[C@H](O)[C@H](O)[C@H]1O [Compound 3, 2-(1-deoxy-β-D-galactopyranosyl)-1,2-benzisoselenazol-3(2H)-one]	–	–	–	24.3	21	–
CC(=O)OCC1O[C@@H](NC(=O)c2ccc(-n3[se]c4ccccc4c3=O)cc2)C(OC(C)=O)C(OC(C)=O)[C@@H]1O[C@@H]1OC(COC(C)=O)[C@H](OC(C)=O)C(OC(C)=O)C1OC(C)=O (some centres unmarked) [Compound 27]	–	6.8	12	–	–	–
CC(=O)OCC1O[C@@H](Oc2ccc(-n3[se]c4ccccc4c3=O)cc2)C(OC(C)=O)C(OC(C)=O)[C@@H]1OC(C)=O (some centres unmarked) [Compound 25]	–	11.4	65	–	–	–
O=C(Cn1[se]c2ccccc2c1=O)N[C@@H]1O[C@H](CO)[C@@H](O)[C@H](O)[C@H]1O [Compound 7, 2-(3-oxo-1,2-benzisoselenazol-2(3H)-yl)-N-(1-deoxy-β-D-glucopyranosyl)-acetamide]	–	–	–	40.3	52	8
2-(4-(2,3,4,6-tetra-O-acetyl-β-D-glucopyranosyl)phenzyl)-1,2-benzisoselenazol-3(2H)-one [Compound 8]	–	–	–	33.7	24.6	12
O=C(OCC1O[C@@H](OC(=O)c2ccc(-n3[se]c4ccccc4c3=O)cc2)C(OC(=O)c2ccccc2)C(OC(=O)c2ccccc2)[C@@H]1OC(=O)c1ccccc1)c1ccccc1 (some centres unmarked) [Compound 31]	–	22.9	8	–	–	–
CC(=O)OCC1O[C@@H](NC(=O)c2ccc(-n3[se]c4ccccc4c3=O)cc2)C(OC(C)=O)C(OC(C)=O)[C@H]1OC(C)=O (some centres unmarked) [Compound 24]	–	15.3	72	–	–	–
CC(=O)OC[C@H]1O[C@@H](NC(=O)Cn2[se]c3ccccc3c2=O)[C@H](OC(C)=O)[C@@H](OC(C)=O)[C@@H]1OC(C)=O [Compound 6, 2-(3-oxo-1,2-benzisoselenazol-2(3H)-yl)-N-(1-deoxy-2,3,4,6-tetra-O-acetyl-β-D-glucopyranosyl)-acetamide]	–	–	–	145	275	–
O=C(CCCn1[se]c2ccccc2c1=O)N[C@@H]1OC(CO)[C@@H](O[C@@H]2OC(CO)[C@H](O)C(O)C2O)C(O)C1O (some centres unmarked) [Compound 16]	39.7	–	–	–	–	–
O=C(N[C@@H]1OC(CO)[C@H](O)C(O)C1O)c1ccc(-n2[se]c3ccccc3c2=O)cc1 (some centres unmarked) [Compound 23]	–	12.7	32	–	–	–
CC(=O)OCC1O[C@@H](NC(=O)CCCn2[se]c3ccccc3c2=O)C(OC(C)=O)C(OC(C)=O)[C@@H]1O[C@@H]1OC(COC(C)=O)[C@H](OC(C)=O)C(OC(C)=O)C1OC(C)=O (some centres unmarked) [Compound 15]	34.5	–	–	–	–	–
2-(4-(β-D-glucopyranosyl)phenzyl)-1,2-benzisoselenazol-3(2H)-one [Compound 9]	–	–	–	277	380	4
CC(=O)OCC1O[C@@H](OC(=O)c2ccc(-n3[se]c4ccccc4c3=O)cc2)C(OC(C)=O)C(OC(C)=O)[C@@H]1O[C@@H]1OC(COC(C)=O)[C@H](OC(C)=O)C(OC(C)=O)C1OC(C)=O (some centres unmarked) [Compound 30]	–	2.2	94	–	–	–
O=C(CCCn1[se]c2ccccc2c1=O)N[C@@H]1OC(CO)[C@H](O)C(O)C1O (some centres unmarked) [Compound 14]	66.4	54	13	–	–	–
